Data on 3 molecules can be found in patent US20090131513A1, “ANTI-INFLAMMATORY MODALITIES” (Novogen Research Pty Ltd., priority 2005, published 2009).

Assay [1] has as its system inflammed rat air pouches (serum-treated zymozan). Briefly: Rat air pouch assay. Format: in vivo, rats (Dark Agouti). As to conditions: 0.5 ml of 100 μM into pouch; for Leucocytes in lavage fluid (×10^−7): lavage at 4 h. As for the experimental part: An alternative assay used to measure anti-inflammatory efficacy is the air pouch model which involves the repeated subcutaneous injection of air into the dorsum of rats followed 24 h later by the intrapouch injection of an inflammatory stimulus (Gilroy et al. 1998).
Air pouches were raised on the dorsum of female Dark Agouti rats, approximately 7 weeks of age. To promote the formation of a cellular membrane lining the inside of each pouch, the pouches were maintained by re-inflating on days 2 and 5 after the initial injection of air. On re-inflation, the pouch was first deflated to ensure the needle was positioned correctly, before being re-inflated with 2 mL of sterile air. Using this protocol, the pouches remained inflated until use on day 7, when they were injected with 0.5 ml of either test compound at 100 μM or vehicle control. After 15 min, air pouches were injected with serum-treated zymozan (STZ-500 μg). Lavage of the air pouch (4×2 ml lavages) was performed at 4 h and leucocytes counted, after which the rats were killed, the air pouch excised and processed in formalin for histology. The sections were blinded to the person counting. Using a graticule with 100 squares and the 40× objective, the number of polymorphs were counted in the pouch lining at 10 different and non-adjacent sites. Group sizes were 5-6 rats. Data were analysed for statistical significance within each experiment and using an unpaired t test.

For another assay, the system named is DSS-induced colitis. The experiment in a line: Murine model of DSS-induced colitis. In kind it is in vivo, mice (BALB/c). As to conditions: for ulceration of the posterior colon (mice affected): vehicle 3/8; for mean clinical score versus vehicle: Experiment 3, 11 (p=0.0252); for colonic inflammation, in words: series of experiments, 1.0-1.25 mg/kg single oral dose per day. How it is done: Female BALB/c mice, 6-7 weeks old, were housed for a minimum of one week before any experimental work began. To induce colitis, dextran sulphate sodium (DSS—molecular weight 40 kD, TdB Consultancy AB, Uppsala, Sweden (Dieleman et al. 1994), was administered fresh daily in the drinking water at a concentration of 4.5-5% for 5 days (Okayasu et al. 1990), after which water alone was given. This regime induced mild colitis, evidenced by diarrhea and rectal bleeding, the severity of which was scored, as well as a reduction in the length of the colon. Histologically, colonic inflammation was evidenced by ulceration and an infiltration of neutrophils into the mucosa, which was also scored. The systemic effect of the colitis causes weight loss, which was also monitored.
Either vehicle (PEG 400:PBS1:1) Compounds 1 or 4 were administered at a dose rate of 1 mg/kg throughout the experiment until the mice were killed at day 17.
Either Compounds 1 and 2, at a dose of 1 mg/kg or vehicle were administered for 10 days prior to DSS being added to the drinking water to induce colitis, after which test compound was stopped. DSS was administered for 5 days and the mice killed 8 days later (day 23).
Either the cis or the trans isomers of Compound 3 (Compound 3a and 3b respectively) at 1.25 mg/kg or vehicle were administered throughout the experiment until the mice were killed at day 17.

For assay [2], the system named is inflammed rat air pouches (serum-treated zymozan). Briefly: Rat air pouch assay. Format: in vivo, rats (Dark Agouti). As to conditions: At 1 mM application.
In assay [3] the test system is NO synthesis in mouse macrophage cell line RAW 264.7. The experiment in a line: Inhibition of nitric oxide synthesis (Griess reaction). As to conditions: 10 μM. Format: cell-based. How it is done:
Exposure of various cells (e.g. macrophages and smooth muscle cells) to bacterial LPS and proinflammatory cytokines induces iNOS which generates NO. NO production can be indirectly quantified by measurement of nitrite (NO2—), a stable breakdown product of NO. The mouse macrophage cell line RAW 264.7 was cultured in DMEM supplemented with FCS, 2 mM glutamine and 50 U/ml penicillin/streptomycin. Cells were treated with either test compound at 10 μM (in 0.125% DMSO) or vehicle alone, together with 10 ng/ml LPS. After incubation for 24 hrs, culture media was collected and analysed immediately for NO concentration using the Griess reaction (Eigler et al. 1995).
On the technique in general: Nitrite, measured by Griess reagent, commonly stands in for NO production.

Assay [4] has as its system UV irradiation-induced skin oedema. Briefly: Murine model of UV irradiation-induced skin oedema. As to conditions: for Increase in skin thickness (mean ± SD, ×0.01 mm): topical 0.2 ml of 20 μM at 30 min, 2 h, 4 h. Format: in vivo, mice (Skh:hr-1 albino). An excerpt:
Groups of 4-5 female Skh:hr-1 albino mice were irradiated with 1×3 MEdD (minimal edematous dose) of solar simulated UV radiation (SSUV). Solar-simulated ultraviolet radiation (SSUV) was provided by a planar bank of 6 UVA tube (Hitachi 40 W F40 T 10/BL, black light) and one UVB tube (Philips TL 40 W/12 RS) with radiation filtered through a sheet of 0.125 mm cellulose acetate (Eastman Chemical Products, Kingport, Term, USA) to give 2.96×10-4 W/cm2 UVA and 1.59×10-5 W/cm2 UVB. During irradiation, the cages were rotated below the lights to reduce the variation in radiation intensity in different positions.
Either test compound (0.2 ml of a 20 μM solution) or vehicle (propylene glycol/ethanol/water 1:2:1) was applied to the irradiated dorsal skin at 30 min, 2 h and 4 h post-irradiation. Dorsal skin fold measurements were made with a spring micrometer prior to and at 24 hr and 48 h post-UV exposure. The difference in skin thickness pre- and post-exposure to UVR was calculated for each mouse, and the differences examined between test compound and vehicle control were analysed using an unpaired two-tailed t test.

The test system of assay [5] is AA-induced ear inflammation. The experiment in a line: Murine ear inflammation induced by arachidonic acid. As to conditions: for Increase in ear thickness (mean ± SD, ×0.01 mm): 25 mg/kg i/p, 1 hr post-AA application; for AA-induced ear inflammation / ear thickness compared with vehicle, in words: mouse, in vivo. Format: in vivo, mice (BALB/c). The source says: Compounds were examined for their ability to inhibit ear swelling in mice induced by the topical application of arachidonic acid (AA). The inflammatory response due AA, the immediate precursor of the eicosanoids, is due to formation of AA metabolites via both the cyclooxygenase (COX) and lipoxygenase (LOX) pathways (Young et al. 1984). AA induces an increase in both PGE2 and LTC4 synthesis which precedes the increase in ear thickness (Opas et al. 1985; Chang et al. 1986).
Female BALB/c mice (ARC, WA, Australia), weighing 15-21 g were injected with Compound 2 delivered in polyethylene glycol (PEG) 400:phosphate buffered saline (PBS) 1:1 intraperitoneally (i/p) at a dose of 25 mg/kg either 30 min prior to or immediately before the application of AA to the ears. Mice were anaesthetized using isoflurane and baseline thickness of both ears was measured using a spring micrometer. Each mouse received a total of 20 μL of AA in ethanol (50 mg/ml) applied to the inner and outer surfaces of each pinna (i.e. 0.5 mg AA per ear). Mice were anaesthetized again to remeasure the ears at 1 hr post-AA application.
The difference in ear swelling pre- and post-application of AA for each ear was calculated, and the average for the two ears of each mouse calculated. The difference in mean swelling of each test group compared to the group given vehicle alone was calculated using a two-tailed unpaired t test (Prism 4, GraphPad Software).

The target in a further assay is T1, TX synthase (TXS) (Homo sapiens, UniProt P24557).
T1 construct: endogenous in cells; host or cells: undifferentiated U937 cells
T1 sequence (P24557 1-533): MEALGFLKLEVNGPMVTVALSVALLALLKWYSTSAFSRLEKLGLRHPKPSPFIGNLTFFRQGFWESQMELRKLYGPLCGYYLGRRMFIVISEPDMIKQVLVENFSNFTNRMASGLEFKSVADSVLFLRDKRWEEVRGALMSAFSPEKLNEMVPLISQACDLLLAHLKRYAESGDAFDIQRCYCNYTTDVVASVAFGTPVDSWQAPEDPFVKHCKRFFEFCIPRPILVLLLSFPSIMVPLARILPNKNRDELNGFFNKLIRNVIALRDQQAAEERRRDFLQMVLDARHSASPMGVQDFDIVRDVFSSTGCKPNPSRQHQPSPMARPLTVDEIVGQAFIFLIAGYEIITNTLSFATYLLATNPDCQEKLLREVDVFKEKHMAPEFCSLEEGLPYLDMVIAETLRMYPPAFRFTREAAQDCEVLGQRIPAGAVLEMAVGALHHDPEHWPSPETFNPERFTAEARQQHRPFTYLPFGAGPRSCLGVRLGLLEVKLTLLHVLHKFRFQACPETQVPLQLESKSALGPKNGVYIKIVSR
The experiment in a line: TXB2 synthesis following addition of exogenous PGH2 to U937 cells. Format: cell-based. As to conditions: 1, 10, 100 μM, undifferentiated U937 cells, PGH2 5 μM. As for the experimental part:
To examine effects of test compounds directly on TX synthase (TXS), a different assay system was used. Whereas arachidonic acid (AA) is the substrate for COX, PGH2 is the substrate for TX synthase. To examine directly the effect of these compounds on TXS, exogenous ? elow:
Test compounds at 0 μM, 1 μM, 10 μM and 100 μM (in DMSO) were incubated with undifferentiated U937 cells (6×10^6/ml) for 30 min at 37° C., after which PGH2 (5 μM) was added. After incubation for 10 min, the reaction was terminated by centrifugation and the supernatants were collected and TXB2 production was measured in triplicate by RIA. ANOVA followed by Newman-Keuls multiple comparisons test was used to examine differences between doses and the control values. A statistical significance level of 0.05 was used and differences from control values are indicated by an asterisk (*).

Another assay deals with NFκB promoter activity. Briefly: Inhibition of NFκB promoter activity (β-lactamase reporter) in TNFα-stimulated THP-1 cells. To be noted: 5 h. Format: cell-based, human. How it is done:
Human macrophage THP-1 cells, modified to include the β-lactamase reporter gene, were seeded into wells of a 96-well plate (50×10^3 cells/well) in the presence of RPMI 1640 medium (70 μl). TNFα (7.5 ng/ml) and human sera (final concentration of 20%) were added to each well. Plates were incubated for 5 h at 37° C. to allow for NFkB-stimulated β-lactamase production. LiveBLAzer™ FRET B/G Substrate (CCF4-AM) was then added to assay for β-lactamase activity. Once CCFA-AM enters a cell, it is converted to negatively charged CCF4 by endogenous esterases. Excitation of this substrate at 409 nm leads to efficient FRET between the coumarin and fluorescein moieties, resulting in a green fluorescence detectable at 530 nm. The presence of β-lactamase leads to cleavage of CCF4 and results in a loss of FRET, resulting in a robust blue fluorescent signal detectable at 460 nm. Thus, activity of beta-lactamase (a marker of NFkB-promoter activity) is measured as a product to substrate ratio (blue/green fluorescence ratio: 460 nm/530 nm).

`Cc1c(O)ccc2c1OCC(c1ccc(O)cc1)C2O` (single isomer, unassigned) [Compound 3a]: the “Polymorphs in tissue sections (per 100 squares)” value in assay [1] (4 h) is 17.9 ± 14.2 per 100 squares. For the same molecule, the “Leucocytes in lavage fluid (×10^−7)” value in assay [1] is on record as 0.47 ± 0.4 ×10^−7. In addition, in the assay on DSS-induced colitis (Experiment 3, 1.25 mg/kg), the “colon length versus vehicle” value was “significantly longer (p=0.039)”, the “day of switch from mean body weight loss to mean body weight gain” value was 4 days, the “degree of mucosal damage versus vehicle” value is reported as “significantly lower (p=0.018)” and the “ulceration of the posterior colon (mice affected)” value is “not observed”. In addition, the “colonic inflammation and its resolution, in words” value with DSS-induced colitis (Experiment 3, 1.25 mg/kg throughout until day 17) is “reduced colonic inflammation and hastened its resolution”. In addition, in the assay with DSS-induced colitis (Experiment 3, 1.25 mg/kg, vehicle nearly 5%), the “maximum mean weight loss” value was “less than 2%”. Also, the “mean clinical score versus vehicle” value in the assay with DSS-induced colitis (days 8 (p=0.0078), 9 (p=0.0326), 10 (p=0.0386), 15 (p=0.0033), 16 (p=0.0016)) is “significantly lower”. Also, the “colonic inflammation, in words” value in the assay with DSS-induced colitis is listed as “reduced colonic inflammation”. For the same molecule, the “number of polymorphs in the tissue sections, in words” value in assay [2] is given as “suppressed the number of polymorphs”. Moreover, the “NO synthesis, direction of effect in words” value in assay [3] is on record as “inhibited NO synthesis”. In addition, in assay [4] (24 hrs post-irradiation), the “Increase in skin thickness (mean ± SD, ×0.01 mm)” value stood at 32 ± 18 ×0.01 mm. In addition, the “Increase in skin thickness (mean ± SD, ×0.01 mm)” value in assay [4] (48 hrs post-irradiation) is listed as 69 ± 24 ×0.01 mm. Also, the “UV-induced inflammation / skin oedema, in words” value in assay [4] (both time points (24 and 48 hrs), topical) is on record as “significantly inhibited skin oedema”. For the same molecule, in assay [5], the “Increase in ear thickness (mean ± SD, ×0.01 mm)” value turned out to be 6.7 ± 2.1 ×0.01 mm and the “AA-induced ear inflammation / ear thickness compared with vehicle, in words” value was “significant reduction in ear thickness”.

Take `Cc1c(O)ccc2c1OCC(c1ccc(O)cc1)C2O` (single isomer, unassigned) [Compound 3b]: the “Leucocytes in lavage fluid (×10^−7)” value in assay [1] is reported as 0.66 ± 0.23 ×10^−7. For the same molecule, the “ulceration of the posterior colon (mice affected)” value with DSS-induced colitis (Experiment 3, 1.25 mg/kg) was 1/8. Moreover, in the assay on DSS-induced colitis (days 8 (p=0.0055), 9 (p=0.0057), 17 (p=0.0177)), the “mean clinical score versus vehicle” value was “significantly lower”. In addition, in the assay on DSS-induced colitis, the “colonic inflammation, in words” value was “reduced colonic inflammation”. For the same molecule, in assay [3], the “NO synthesis, direction of effect in words” value is reported as “inhibited NO synthesis”. For the same molecule, in assay [4] (24 hrs post-irradiation), the “Increase in skin thickness (mean ± SD, ×0.01 mm)” value was determined as 56 ± 14 ×0.01 mm. For the same molecule, the “Increase in skin thickness (mean ± SD, ×0.01 mm)” value in assay [4] (48 hrs post-irradiation) is 113 ± 25 ×0.01 mm. Besides, in assay [5], the “Increase in ear thickness (mean ± SD, ×0.01 mm)” value is 7.1 ± 3.0 ×0.01 mm and the “AA-induced ear inflammation / ear thickness compared with vehicle, in words” value is recorded as “significant reduction in ear thickness”.

As to `Cc1cc(O)cc2c1C(=O)C(c1ccc(O)cc1)CO2` (stereo not shown) [Compound 5], the “thromboxane synthase inhibition (TXB2 synthesis after exogenous PGH2), selectivity in words” value on TX synthase (TXS) was “selective thromboxane synthase inhibitors”. The “inhibition of NFκB compared to vehicle control” value with NFκB promoter activity is given as “significantly (p<0.001) inhibited”.
